Measurements: ChEMBL document CHEMBL2029344, “A new class of prolylcarboxypeptidase inhibitors, part 2: the aminocyclopentanes” (Bioorg Med Chem Lett, 2012)

Legend:
[1] = Stability in mouse liver microsomes after 30 mins by LC/MS analysis; type: ADME, Microsome; conditions: read-out: Stability
[2] = Percentage unbound in 10% mouse plasma; type: ADME, cell-free
[3] = Percentage unbound in 10% human plasma; type: ADME, cell-free
[4] = Stability in human liver microsomes after 30 mins by LC/MS analysis; type: ADME, Microsome; conditions: read-out: Stability
Mus musculus [5] = test: Ex-vivo inhibition of po dosed mouse PrCP by FRET analysis in presence of heat inactivated 100% plasma; type: functional, organism-based
Mus musculus [6] = test: Ex-vivo inhibition of po dosed mouse PrCP by FRET analysis in presence of heat inactivated 25% plasma; type: functional, organism-based
[7] = target: T1, Lysosomal Pro-X carboxypeptidase (Mus musculus, UniProt Q7TMR0); test: Inhibition of mouse PrCP
T1 sequence (Q7TMR0 whole entry): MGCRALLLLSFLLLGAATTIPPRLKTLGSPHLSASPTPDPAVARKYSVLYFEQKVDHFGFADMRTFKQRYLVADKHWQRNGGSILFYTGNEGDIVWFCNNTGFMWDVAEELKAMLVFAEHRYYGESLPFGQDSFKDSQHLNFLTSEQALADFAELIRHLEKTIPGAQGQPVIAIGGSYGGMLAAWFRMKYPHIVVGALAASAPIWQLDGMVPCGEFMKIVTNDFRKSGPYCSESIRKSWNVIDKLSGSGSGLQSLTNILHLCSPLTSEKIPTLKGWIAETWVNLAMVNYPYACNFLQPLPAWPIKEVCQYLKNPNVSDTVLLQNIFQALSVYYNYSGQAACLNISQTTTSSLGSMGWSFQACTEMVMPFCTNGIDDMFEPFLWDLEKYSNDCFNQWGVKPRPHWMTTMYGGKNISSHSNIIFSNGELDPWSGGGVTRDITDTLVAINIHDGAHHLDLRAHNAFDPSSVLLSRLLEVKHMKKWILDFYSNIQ

Mus musculus [8] = test: Ex-vivo inhibition of po dosed mouse PrCP by FRET analysis in absence of plasma; type: functional, organism-based
Mus musculus [9] = test: Ex-vivo inhibition of PrCP in heat inactivated 100% plasma of C57 mouse assessed as target engagement calculated as [cmpd]plasma/([cmpd]plasma + Ki (heat inactivated plasma))x100 at 3 mg/kg, po after 20 hrs by FRET analysis; type: functional; design: scale not given: the % may be the effect or the level left
[10] = Drug uptake in C57 mouse brain at 10 mg/kg, po after 20 hrs by LC/MS analysis; type: ADME, organism-based; design: dose 10 mg/kg, route oral; conditions: read-out: Drug uptake
[11] = Drug uptake in C57 mouse plasma at 10 mg/kg, po after 20 hrs by LC/MS analysis; type: ADME, organism-based; design: dose 10 mg/kg, route oral
Mus musculus [12] = test: Ex-vivo inhibition of PrCP in heat inactivated 100% plasma of C57 mouse assessed as target engagement calculated as [cmpd]plasma/([cmpd]plasma + Ki (heat inactivated plasma))x100 at 10 mg/kg, po after 20 hrs by FRET analysis; type: functional; design: scale not given: the % may be the effect or the level left
[13] = Ratio of drug uptake in brain to plasma of C57 mouse at 30 mg/kg, po after 20 hrs by LC/MS analysis; type: ADME, organism-based; design: dose 30 mg/kg, route oral; conditions: read-out: BPR
Mus musculus [14] = test: Ex-vivo inhibition of PrCP in heat inactivated 100% plasma of C57 mouse assessed as target engagement at 3 mg/kg, po after 20 hrs by FRET analysis; type: functional; design: scale not given: the % may be the effect or the level left
[15] = Ratio of drug uptake in brain to plasma of C57 mouse at 3 mg/kg, po after 20 hrs by LC/MS analysis; type: ADME, organism-based; design: dose 3 mg/kg, route oral; conditions: read-out: BPR
[16] = Ratio of drug uptake in brain to plasma of C57 mouse at 10 mg/kg, po after 20 hrs by LC/MS analysis; type: ADME, organism-based; design: dose 10 mg/kg, route oral; conditions: read-out: BPR
[17] = Drug uptake in C57 mouse plasma at 3 mg/kg, po after 20 hrs by LC/MS analysis; type: ADME, organism-based; design: dose 3 mg/kg, route oral
[18] = Drug uptake in C57 mouse brain at 30 mg/kg, po after 20 hrs by LC/MS analysis; type: ADME, organism-based; design: dose 30 mg/kg, route oral; conditions: read-out: Drug uptake
[19] = Drug uptake in C57 mouse brain at 3 mg/kg, po after 20 hrs by LC/MS analysis; type: ADME, organism-based; design: dose 3 mg/kg, route oral; conditions: read-out: Drug uptake
Mus musculus [20] = test: Ex-vivo inhibition of PrCP in heat inactivated 100% plasma of C57 mouse assessed as target engagement at 10 mg/kg, po after 20 hrs by FRET analysis; type: functional; design: scale not given: the % may be the effect or the level left
Mus musculus [21] = test: Ex-vivo inhibition of PrCP in heat inactivated 100% plasma of po dosed C57 mouse assessed as target engagement after 20 hrs by FRET analysis; type: functional; design: scale not given: the % may be the effect or the level left
Mus musculus [22] = test: Ex-vivo inhibition of PrCP in heat inactivated 100% plasma of C57 mouse assessed as target engagement calculated as [cmpd]plasma/([cmpd]plasma + Ki (heat inactivated plasma))x100 at 30 mg/kg, po after 20 hrs by FRET analysis; type: functional; design: scale not given: the % may be the effect or the level left
[23] = Drug uptake in C57 mouse plasma at 30 mg/kg, po after 20 hrs by LC/MS analysis; type: ADME, organism-based; design: dose 30 mg/kg, route oral
[24] = Apparent permeability across pig LLC-PK1 cells at 1 uM; type: ADME, cell-based, Sus scrofa
Mus musculus [25] = test: Ex-vivo inhibition of PrCP in heat inactivated 100% plasma of C57 mouse assessed as target engagement at 30 mg/kg, po after 20 hrs by FRET analysis; type: functional; design: scale not given: the % may be the effect or the level left
Mus musculus [26] = test: Toxicity in po dosed C57 mouse; type: organism-based; conditions: in vivo

| Structure (SMILES) | remaining at 0.5 h [1] [%] | fraction unbound [2] | fraction unbound [3] | remaining at 0.5 h [4] [%] | Ki (Mus musculus [5]) [nM] | Ki (Mus musculus [6]) [nM] | IC50 [7] [nM] | Ki (Mus musculus [8]) [nM] | also measured |
| --- | --- | --- | --- | --- | --- | --- | --- | --- | --- |
| CN(C)[C@@]1(C)C[C@H](C(=O)N2CCC(c3ccnn3-c3ccc(F)c(Cl)c3)CC2)[C@@H](c2ccc(F)cc2F)C1 | 34 | 0.132 | 0.104 | 2 | – | – | – | – | – |
| C[C@@]1(N)C[C@H](C(=O)N2CCC(c3ccnn3-c3ccc(F)c(Cl)c3)CC2)[C@@H](c2ccc(F)cc2F)C1 | 73 | 0.035 | 0.065 | 20 | 3.9 | 1.5 | 1 | 0.7 | Activity (Mus musculus [9]): 84.2%; concentration at 20 h [10]: 51 nM; concentration at 20 h [11]: 185 nM; Activity (Mus musculus [12]): 100%; Kp at 20 h [13]: 0.07; Activity (Mus musculus [14]): 31%; Kp at 20 h [15]: 0.18; Kp at 20 h [16]: 0.28; concentration at 20 h [17]: 23 nM; concentration at 20 h [18]: 142 nM; concentration at 20 h [19]: 6 nM; Activity (Mus musculus [20]): 72%; Activity (Mus musculus [21]): 38%; Activity (Mus musculus [22]): 100%; concentration at 20 h [23]: 2130 nM; Papp at 1 µM [24]: 21.7 ×10⁻⁶ cm/s; Activity (Mus musculus [25]): >=100%; Activity (Mus musculus [26]): Non-toxic |
| Cc1nc(C2CCN(C(=O)[C@@H]3C[C@@](C)(N)C[C@H]3c3ccc(F)cc3F)CC2)n(-c2ccc(Cl)c(C)c2)n1 | 72 | 0.102 | 0.076 | 78 | 73.9 | 26.7 | 85.1 | 11 | – |
| Cc1nc(C2CCN(C(=O)[C@@H]3C[C@@](C)(N)C[C@H]3c3ccc(F)cc3F)CC2)n(-c2cc(Cl)ccc2Cl)n1 | 79 | 0.091 | 0.245 | 79 | 8 | 4.7 | 4.1 | 3.7 | – |
| Cc1cc(C2CCN(C(=O)[C@@H]3C[C@@](C)(N(C)C)C[C@H]3c3ccc(F)cc3F)CC2)n(-c2ccc(F)c(Cl)c2)n1 | – | 0.035 | 0.064 | – | 4.5 | 1.5 | 0.5 | 0.6 | – |

Continued, in another order:

| remaining at 0.5 h [1] [%] | fraction unbound [2] | fraction unbound [3] | remaining at 0.5 h [4] [%] | Ki (Mus musculus [5]) [nM] | Ki (Mus musculus [6]) [nM] | IC50 [7] [nM] | Ki (Mus musculus [8]) [nM] | Structure (SMILES) | also measured |
| --- | --- | --- | --- | --- | --- | --- | --- | --- | --- |
| – | 0.127 | 0.205 | – | 4.6 | 4.6 | 11.2 | 4.6 | Cc1nc(C2CCN(C(=O)[C@@H]3C[C@@](C)(N)C[C@H]3c3ccc(F)cc3F)CC2)n(-c2ccc(F)c(Cl)c2)n1 | – |
| – | – | – | – | – | – | 65 | – | Cc1nc(C2CCN(C(=O)[C@@H]3C[C@H](N(C)C)C[C@H]3c3ccc(F)cc3F)CC2)n(-c2ccc(Cl)c(C)c2)n1 | – |
| 6 | 0.14 | 0.33 | 18 | 1 | 1 | 2 | 1 | Cc1nc(C2CCN(C(=O)[C@@H]3C[C@@](C)(N(C)C)C[C@H]3c3ccc(F)cc3F)CC2)n(-c2cc(Cl)ccc2Cl)n1 | – |
| 89 | 0.061 | 0.1 | 33 | – | – | 2.6 | – | C[C@]1(N)C[C@H](C(=O)N2CCC(c3ccnn3-c3ccc(F)c(Cl)c3)CC2)[C@@H](c2ccc(F)cc2F)C1 | – |
| 23 | 0.091 | 0.144 | 1 | – | – | – | – | CN(C)[C@]1(C)C[C@H](C(=O)N2CCC(c3ccnn3-c3ccc(F)c(Cl)c3)CC2)[C@@H](c2ccc(F)cc2F)C1 | concentration at 20 h [10]: 26 nM; concentration at 20 h [11]: 305 nM; Activity (Mus musculus [12]): 99.6%; Kp at 20 h [16]: 0.09; Activity (Mus musculus [20]): >=100%; Activity (Mus musculus [21]): 38%; Papp at 1 µM [24]: 23.1 ×10⁻⁶ cm/s; Activity (Mus musculus [26]): Non-toxic |
| – | 0.32 | 0.22 | – | – | – | 41 | – | Cc1nc(C2CCN(C(=O)[C@@H]3C[C@@H](N(C)C)C[C@H]3c3ccc(F)cc3F)CC2)n(-c2ccc(Cl)c(C)c2)n1 | – |
